Assays:
Assay type in all cases: in vivo
[1] = tested on: IL-12; assay: IL-12 levels in sera upon i.v. glycolipid administration to C57BL/6 mice (ELISA); set-up: IL-12 levels, test 1 / IL-12 levels, test 2 / IL-12 levels, average / IL-12 levels, Total: unit not given here
Experimental: (§1) Five- to six-week-old female C57BL/6 mice and BALB/c mice were purchased from Taconic. Each glycolipid was stored at 1 mg/ml in 100% DMSO. Mice were injected intravenously with 1 μg of each glyocolipid diluted in 200 μL sterile phosphate buffered saline (PBS). At indicated time points, sera were collected from each animal, and concentrations of IFN-γ, IL-4, and IL-12 in the sera were evaluated by enzyme-linked immunosorbent assay (ELISA). Serum concentrations of IFN-γ, IL-4, and IL-12 were evaluated using an ELISA kit (eBioscience, San Diego, Calif.). Briefly, 96 well flat-bottom ELISA plates (NUNC) were coated with capture antibody according to the manufacture's recommendation and incubated overnight at 4° C. The plates were washed with PBS+0.05% Tween 20 (PBS-T), then incubated with manufacturer provided blocking solution for 1 hr at room temperature to block non-specific binding sites. After washing with PBS-T, sera diluted 1:10 was added to the wells and incubated for 2 hrs at room temperature. Plates were then incubated at room temperature for 1 hr with biotintylated detection antibody, washed, incubated with avidin conjugated to horse radish peroxidase (HRP) for 30 min at room temperature, washed, and finally incubated with tetramethylbenzidine substrate solution in the dark for 10 minutes at room temperature. The antibodies, avidin-HRP, and substrate solution were all diluted according to the manufacture's recommendation. Reactions were stopped with 2.0N sulfuric acid and the cytokine concentration in each well was determined by comparing the absorbance at 450 nm in each well to known standards. The levels of Th1- and Th2-type cytokines were determined in two different genetic backgrounds, i.e., in C57BL/6 mice and BALB/c mice. The following compounds were administered: A=compound (A-1 trans-conformer), B=compound (A-2), C=compound (A-3), D=compound (A-4), E=compound (A-5), Z=control (PBS alone), CRONY=α-C-GalCer, KRN=α-GalCer, GCK109 (A-1 trans-conformer), GCK151 (A-1 cis-conformer), GCK152 (A-7). The levels of cytokines were measured at 0, 2, 6, 12, 24, 48, and 72 hours after the compound administration. The levels of Th1-type cytokines IFN-γ and IL-12 are summarized in FIGS. 2A-C and 3A-C, respectively. Table 7 provides IFN-γ/IL-4 and IL-12/IL-4 ratios for various compounds, which can be used as indicators of their ability to selectively stimulate Th1-type immune responses.

[2] = tested on: IL-4; assay: IL-4 levels in sera upon i.v. glycolipid administration to BALB/c mice (ELISA); set-up: unit not given here
Experimental: as §1

[3] = tested on: IL-12; assay: IL-12 levels in sera upon i.v. glycolipid administration to BALB/c mice (ELISA); set-up: IL-12 levels, test 1 / IL-12 levels, test 2 / IL-12 levels, average / IL-12 levels, Total: unit not given here
Experimental: as §1

[4] = tested on: IFN-γ; assay: IFN-γ levels in sera upon i.v. glycolipid administration to BALB/c mice (ELISA); set-up: IFN-γ levels, test 1 / IFN-γ levels, test 2 / IFN-γ levels, average / IFN-γ levels, Total: unit not given here
Experimental: as §1

SMILES: CCCCCCCCCCCCCC[C@@H](O)[C@@H](O)[C@H](CC[C@H]1O[C@H](CO)[C@H](O)[C@H](O)[C@H]1O)NC(=O)CCCCCCCCCCCCCCCCCCCOCCCCC [A-5]
- IL-12/IL-4 (B6) ([1]; C57BL/6, ratio calculated from Tables 1-6): 3.4
- IL-12 levels, average ([1]; C57BL/6, serum, hour 0): 5
- IL-12 levels, test 1 ([1]; C57BL/6, serum, hour 0): 5
- IL-12 levels, test 2 ([1]; C57BL/6, serum, hour 0): 5
- IL-12 levels, average ([1]; C57BL/6, serum, hour 2): 115.5
- IL-12 levels, test 1 ([1]; C57BL/6, serum, hour 2): 117
- IL-12 levels, test 2 ([1]; C57BL/6, serum, hour 2): 114
- IL-12 levels, average ([1]; C57BL/6, serum, hour 6): 1346.5
- IL-12 levels, test 1 ([1]; C57BL/6, serum, hour 6): 1351
- IL-12 levels, test 2 ([1]; C57BL/6, serum, hour 6): 1342
- IL-12 levels, average ([1]; C57BL/6, serum, hour 12): 518.5
- IL-12 levels, test 1 ([1]; C57BL/6, serum, hour 12): 535
- IL-12 levels, test 2 ([1]; C57BL/6, serum, hour 12): 502
- IL-12 levels, average ([1]; C57BL/6, serum, hour 24): 87
- IL-12 levels, test 1 ([1]; C57BL/6, serum, hour 24): 96
- IL-12 levels, test 2 ([1]; C57BL/6, serum, hour 24): 78
- IL-12 levels, average ([1]; C57BL/6, serum, hour 48): 58
- IL-12 levels, test 1 ([1]; C57BL/6, serum, hour 48): 52
- IL-12 levels, test 2 ([1]; C57BL/6, serum, hour 48): 64
- IL-12 levels, average ([1]; C57BL/6, serum, hour 72): 49.5
- IL-12 levels, test 1 ([1]; C57BL/6, serum, hour 72): 46
- IL-12 levels, test 2 ([1]; C57BL/6, serum, hour 72): 53
- IL-12 levels, Total ([1]; C57BL/6, serum, total over hours 0-72): 2182
- IL-4 level, average ([2]; hour 0): 27
- IL-4 level, test 1 ([2]; hour 0): 27
- IL-4 level, test 2 ([2]; hour 0): 27
- IL-4 level, average ([2]; hour 2): 156
- IL-4 level, test 1 ([2]; hour 2): 122
- IL-4 level, test 2 ([2]; hour 2): 190
- IL-4 level, average ([2]; hour 6): 67.5
- IL-4 level, test 1 ([2]; hour 6): 60
- IL-4 level, test 2 ([2]; hour 6): 75
- IL-4 level, average ([2]; hour 12): 45.5
- IL-4 level, test 1 ([2]; hour 12): 48
- IL-4 level, test 2 ([2]; hour 12): 43
- IL-4 level, average ([2]; hour 24): 41
- IL-4 level, test 1 ([2]; hour 24): 39
- IL-4 level, test 2 ([2]; hour 24): 43
- IL-4 level, average ([2]; hour 48): 40
- IL-4 level, test 1 ([2]; hour 48): 41
- IL-4 level, test 2 ([2]; hour 48): 39
- IL-4 level, average ([2]; hour 72): 3.4
- IL-4 level, test 1 ([2]; hour 72): 3.4
- IL-4 level, test 2 ([2]; hour 72): 3.4
- IL-4 level, Total ([2]; total over hours 0-72): 382
- IL-12/IL-4 (BALB/c) ([3]; ratio calculated from Tables 1-6): 13
- IL-12 levels, average ([3]; serum, hour 0): 5
- IL-12 levels, test 1 ([3]; serum, hour 0): 5
- IL-12 levels, test 2 ([3]; serum, hour 0): 5
- IL-12 levels, average ([3]; serum, hour 2): 153.5
- IL-12 levels, test 1 ([3]; serum, hour 2): 74
- IL-12 levels, test 2 ([3]; serum, hour 2): 233
- IL-12 levels, average ([3]; serum, hour 6): 1668
- IL-12 levels, test 1 ([3]; serum, hour 6): 1587
- IL-12 levels, test 2 ([3]; serum, hour 6): 1749
- IL-12 levels, average ([3]; serum, hour 12): 2806.5
- IL-12 levels, test 1 ([3]; serum, hour 12): 2246
- IL-12 levels, test 2 ([3]; serum, hour 12): 3367
- IL-12 levels, average ([3]; serum, hour 24): 141
- IL-12 levels, test 1 ([3]; serum, hour 24): 110
- IL-12 levels, test 2 ([3]; serum, hour 24): 172
- IL-12 levels, average ([3]; serum, hour 48): 97
- IL-12 levels, test 1 ([3]; serum, hour 48): 0
- IL-12 levels, test 2 ([3]; serum, hour 48): 194
- IL-12 levels, average ([3]; serum, hour 72): 76.5
- IL-12 levels, test 1 ([3]; serum, hour 72): 153
- IL-12 levels, test 2 ([3]; serum, hour 72): 0
- IL-12 levels, Total ([3]; serum, total over hours 0-72): 4949
- IFN-γ/IL-4 (BALB/c) ([4]; BALB/c, ratio calculated from Tables 1-6): 39
- IFN-γ levels, average ([4]; BALB/c, serum, hour 0): 2.5
- IFN-γ levels, test 1 ([4]; BALB/c, serum, hour 0): 27
- IFN-γ levels, test 2 ([4]; BALB/c, serum, hour 0): 27
- IFN-γ levels, average ([4]; BALB/c, serum, hour 2): 101
- IFN-γ levels, test 1 ([4]; BALB/c, serum, hour 2): 118
- IFN-γ levels, test 2 ([4]; BALB/c, serum, hour 2): 84
- IFN-γ levels, average ([4]; BALB/c, serum, hour 6): 1665
- IFN-γ levels, test 1 ([4]; BALB/c, serum, hour 6): 1650
- IFN-γ levels, test 2 ([4]; BALB/c, serum, hour 6): 1680
- IFN-γ levels, average ([4]; BALB/c, serum, hour 12): 3566
- IFN-γ levels, test 1 ([4]; BALB/c, serum, hour 12): 4018
- IFN-γ levels, test 2 ([4]; BALB/c, serum, hour 12): 3114
- IFN-γ levels, average ([4]; BALB/c, serum, hour 24): 9104.5
- IFN-γ levels, test 1 ([4]; BALB/c, serum, hour 24): 8738
- IFN-γ levels, test 2 ([4]; BALB/c, serum, hour 24): 9471
- IFN-γ levels, average ([4]; BALB/c, serum, hour 48): 425.5
- IFN-γ levels, test 1 ([4]; BALB/c, serum, hour 48): 453
- IFN-γ levels, test 2 ([4]; BALB/c, serum, hour 48): 398
- IFN-γ levels, average ([4]; BALB/c, serum, hour 72): 56
- IFN-γ levels, test 1 ([4]; BALB/c, serum, hour 72): 54
- IFN-γ levels, test 2 ([4]; BALB/c, serum, hour 72): 58
- IFN-γ levels, Total ([4]; BALB/c, serum, total over hours 0-72): 14922
- effect: higher/extended IFN-γ and IL-12 with much lower IL-4 compared to α-GalCer (KRN) ([4]; C57BL/6 and BALB/c mice, 1 μg i.v.): particularly pronounced

Source: US8883745B2, “C—glycolipids with enhanced Th-1 profile” (New York University, priority 2006, dated 2014)
